Experimental data published in US4667030A, “Hydrazide succinimide derivatives of antineoplastic indole-dihydroindole alkaloids” (priority 1985, dated 1987).
≈ marks a conversion by molar mass, not a printed value. Counter-ions that a name gives are not always drawn.

What was measured:
[1] = tested on: B-16 Sub.C. melanoma; test: In vivo test, transplanted B-16 Sub.C. melanoma in mice; settings: for activity against transplanted tumor: B-16 Sub.C. melanoma, mice
[2] = tested on: X-5563 plasma cell myeloma; test: In vivo test, transplanted X-5563 plasma cell myeloma in mice; settings: for activity against transplanted tumor: X-5563 plasma cell myeloma, mice
[3] = tested on: C-26 colon carcinoma; test: In vivo test, transplanted C-26 colon carcinoma in mice; settings: for activity against transplanted tumor: C-26 colon carcinoma, mice
[4] = tested on: 6C3HED lymphosarcoma; test: In vivo test, transplanted 6C3HED lymphosarcoma in mice; settings: for activity against transplanted tumor: 6C3HED lymphosarcoma, mice; for % INHIBITION / In vivo test: Toxic: 6C3HED
[5] = tested on: CCRF-CEM, a human acute lymphoblastic leukemia cell line; test: CCRF-CEM cytotoxicity screen (cytostatic activity); type: cell-based; settings: for IC50: Homo sapiens, read-out: IC50 (50% minimum inhibitory concentration)
Method: The compounds of this invention have utility as anti-neoplastic compounds active against transplanted tumors in mice. They also have […]. As evidence of such utility, the cytostatic activity of the compounds was measured by standard procedures against CCRF-CEM, a human acute lymphoblastic leukemia cell line. In the table, column 1 gives the name of the compound, and column 2 the 50% minimum inhibitory concentration of the drug from column 1 in mcg./ml.

[6] = tested on: vincristine-resistant leukemias; settings: common neoplasms including germ-cell tumors; cited from earlier work

## CC[C@]1(O)C[C@@H]2CN(CCc3c([nH]c4ccccc34)[C@@](C(=O)OC)(c3cc4c(cc3OC)N(C)[C@H]3[C@@](O)(C(=O)NN5C(=O)CCCC5=O)[C@H](O)[C@]5(CC)C=CCN6CC[C@]43[C@@H]65)C2)C1 [4-desacetyl VLB 3-carboxhydrazide N^2-glutarimide]
[1]
  activity against transplanted tumor: outstanding activity
[2]
  activity against transplanted tumor: outstanding activity
[3]
  activity against transplanted tumor: outstanding activity
[4]
  activity against transplanted tumor: outstanding activity

## CC[C@]1(O)C[C@@H]2CN(CCc3c([nH]c4ccccc34)[C@@](C(=O)OC)(c3cc4c(cc3OC)N(C)[C@H]3[C@@](O)(C(=O)NN5C(=O)CCC5=O)[C@H](O)[C@]5(CC)C=CCN6CC[C@]43[C@@H]65)C2)C1 [4-desacetyl VLB 3-carboxhydrazide N^2-succinimide]
[1]
  activity against transplanted tumor: outstanding activity
[2]
  activity against transplanted tumor: outstanding activity
[3]
  activity against transplanted tumor: outstanding activity
[4]
  activity against transplanted tumor: outstanding activity

## CC[C@]1(O)C[C@@H]2CN(CCc3c([nH]c4ccccc34)[C@@](C(=O)OC)(c3cc4c(cc3OC)N(C)[C@H]3[C@@](O)(C(=O)NN5C(=O)CCC5=O)[C@H](OC(=O)CCC(=O)O)[C@]5(CC)C=CCN6CC[C@]43[C@@H]65)C2)C1 [4-Succinoyl VLB 3-carboxhydrazide N^2-succinimide]
[5]
  IC50: 0.5 µg/mL (≈ 0.526 µM)

## CC[C@]1(O)C[C@@H]2CN(CCc3c([nH]c4ccccc34)[C@@](C(=O)OC)(c3cc4c(cc3OC)N(C)[C@H]3[C@@](O)(C(=O)NN5C(=O)CCCC5=O)[C@H](O)[C@]5(CC)C=CCN6CC[C@]43[C@@H]65)C2)C1 [4-Desacetyl VLB Hydrazide N^2 --Glutarimide Sulfate]
[4]; i.v. x 1, 0.0625 mg/kg
  % INHIBITION: 79%
[4]; i.v. x 1, 0.125 mg/kg
  % INHIBITION: 80%
[4]; i.v. x 1, 0.25 mg/kg
  % INHIBITION: 100%
[4]; i.v. x 1, 0.5 mg/kg
  % INHIBITION: 100%
[4]; i.v. x 1, 1 mg/kg
  % INHIBITION: 100%
[4]; i.v. x 1, 2 mg/kg
  In vivo test: Toxic: Toxic
[4]; i.v. x 1, 4 mg/kg
  In vivo test: Toxic: Toxic
[4]; i.v. x 1, 8 mg/kg
  In vivo test: Toxic: Toxic

## CCC(=O)O[C@@H]1[C@]2(CC)C=CCN3CC[C@@]4(c5cc([C@@]6(C(=O)OC)C[C@H]7CN(CCc8c6[nH]c6ccccc86)C[C@](O)(CC)C7)c(OC)cc5N(C)[C@H]4[C@@]1(O)C(=O)NN1C(=O)CCC1=O)[C@@H]32 [4-Propionyl VLB 3-carboxhydrazide N^2 --succinimide sulfate]
[5]
  IC50: 0.01 µg/mL
[4]; i.v. x 1, 1.25 mg/kg
  % INHIBITION: 100%
[4]; i.v. x 1, 2.5 mg/kg
  % INHIBITION: 100%
[4]; i.v. x 1, 5 mg/kg
  In vivo test: Toxic: Toxic

## CC[C@]1(O)C[C@@H]2CN(CCc3c([nH]c4ccccc34)[C@@](C(=O)OC)(c3cc4c(cc3OC)N(C)[C@H]3[C@@](O)(C(=O)NN5C(=O)CCC5=O)[C@H](O)[C@]5(CC)C=CCN6CC[C@]43[C@@H]65)C2)C1 [4-Desacetyl VLB 3-carboxhydrazide N^2 --succinimide sulfate]
[5]
  IC50: 0.02 µg/mL
[4]; i.v. x 1, 1.25 mg/kg
  % INHIBITION: 100%
[4]; i.v. x 1, 2.5 mg/kg
  % INHIBITION: 100%
[4]; i.v. x 1, 5 mg/kg
  In vivo test: Toxic: Toxic

## VLB 3-carboxhydrazide N^2 --succinimide sulfate
[5]
  IC50 (50% minimum inhibitory concentration): 0.01 µg/mL
[1]; B-16 Sub. C., i.v. 1 & 7, dose 0.5
  % INHIBITION: 51%
[1]; B-16 Sub. C., i.v. 1 & 7, dose 1
  % INHIBITION: 82%
[1]; B-16 Sub. C., i.v. 1 & 7, dose 2
  % INHIBITION: 91%
[1]; B-16 Sub. C., i.v. 1 & 7, dose 4
  In vivo test: Toxic: Toxic
[1]; B-16 Sub. C., i.v. 1 & 7, dose 25 (so in the source)
  % INHIBITION: 8%
[2]; X5563, i.v. 1 & 7, dose 0.25
  % INHIBITION: 25%
[2]; X5563, i.v. 1 & 7, dose 0.5
  % INHIBITION: 30%
[2]; X5563, i.v. 1 & 7, dose 1
  % INHIBITION: 59%
[2]; X5563, i.v. 1 & 7, dose 2
  % INHIBITION: 94%
[2]; X5563, i.v. 1 & 7, dose 4
  In vivo test: Toxic: Toxic
[3]; C-26, i.v. 1 & 7, dose 0.25
  % INHIBITION: 0%
[3]; C-26, i.v. 1 & 7, dose 0.5
  % INHIBITION: 0%
[3]; C-26, i.v. 1 & 7, dose 1
  % INHIBITION: 50%
[3]; C-26, i.v. 1 & 7, dose 2
  % INHIBITION: 73%
[3]; C-26, i.v. 1 & 7, dose 4
  In vivo test: Toxic: Toxic
[4]; i.v. x 1, 0.0625 mg/kg
  % INHIBITION: 11%
[4]; i.v. x 1, 0.125 mg/kg
  % INHIBITION: 94%
[4]; i.v. x 1, 0.25 mg/kg
  % INHIBITION: 100%
[4]; i.v. x 1, 0.5 mg/kg
  % INHIBITION: 100%
[4]; i.v. x 1, 1 mg/kg
  % INHIBITION: 100%
[4]; i.v. x 1, 2 mg/kg
  In vivo test: Toxic: Toxic
[4]; i.v. x 1, 4 mg/kg
  In vivo test: Toxic: Toxic

## CC[C@H]1C[C@@H]2CN(CCc3c([nH]c4ccccc34)[C@@](C(=O)OC)(c3cc4c(cc3OC)N(C)[C@H]3[C@@](O)(C(=O)NN5C(=O)CCC5=O)[C@H](O)[C@]5(CC)C=CCN6CC[C@]43[C@@H]65)C2)C1 [4'-deoxy-4-desacetylleurosidine 3-carboxhydrazide N^2-succinimide sulfate]
[5]
  IC50: 0.075 µg/mL

## CC[C@]1(O)C[C@@H]2CN(CCc3c([nH]c4ccccc34)[C@@](C(=O)OC)(c3cc4c(cc3OC)N(C)[C@H]3[C@@](O)(C(N)=O)[C@H](O)[C@]5(CC)C=CCN6CC[C@]43[C@@H]65)C2)C1 [vindesine, 4-desacetyl VLB 3-carboxamide]
[6]
  effectiveness in treating leukemias and neoplasms: effective in treating some vincristine-resistant leukemias in addition to many common neoplasms including germ-cell tumors
